# Data taken from US9963455B2, “Pyrazolo[1,5-a]pyrimidines as antiviral compounds” (Curovir AB, priority 2014, dated 2018).
# Read-outs that look alike come from different tables or passages of the source.
# Assays:
# Type in all cases: cell-based
# [1] = tested on: encephalomyocarditis virus; assay: CPE inhibition in mammalian cell culture, EMCV; set-up: inhibition: dose or concentration left out as unconfirmed; details: Cardiovirus A; for inhibition at 10 µM: Conc. 10.0 μM; for inhibition at 100 µM: Conc. 0.1 mM
# [2] = tested on: coxsackie B virus strain 4; assay: CPE inhibition in mammalian cell culture, Cox-B4
# Enterovirus strain 30 = assay: CPE inhibition in mammalian cell culture, EV30; set-up: inhibition: dose or concentration left out as unconfirmed; details: for inhibition at 5 µM: Conc. 5 µM; for inhibition at 2.5 µM: Conc. 2.5 µM
# [3] = tested on: coxsackie B virus strain 2; assay: CPE inhibition in mammalian cell culture, Cox-B2; set-up: inhibition: dose or concentration left out as unconfirmed; details: read-out: antiviral effect, B2
# Enterovirus strain 6 = assay: microbe, parasite or virus in culture; set-up: inhibition: dose or concentration left out as unconfirmed; details: Conc., read-out: antiviral effect, EV6
# [4] = tested on: coxsackie B virus strain 5; assay: CPE inhibition in mammalian cell culture, Cox-B5; set-up: inhibition: dose or concentration left out as unconfirmed
# polio virus strain 1 = assay: microbe, parasite or virus in culture; set-up: inhibition: dose or concentration left out as unconfirmed; details: read-out: antiviral effect, Polio 1
# Ljungan virus strain 012 = assay: CPE inhibition in mammalian cell culture, LV012; details: Parechovirus B; for inhibition at 5 µM: Conc. 5 µM; for inhibition at 100 µM: Conc. 0.1 mM
# [5] = tested on: Human parechovirus strain 1; assay: CPE inhibition in mammalian cell culture, HPeV-1; details: Parechovirus A; for inhibition at 5 µM: Conc. 5 µM; for inhibition at 2.5 µM: Conc. 2.5 µM
# [6] = tested on: coxsackie B virus strain 1; assay: CPE inhibition in mammalian cell culture, Cox-B1; set-up: inhibition: dose or concentration left out as unconfirmed
# Ljungan virus strain 145 = assay: CPE inhibition in mammalian cell culture, LV145; set-up: inhibition: dose or concentration left out as unconfirmed; details: Parechovirus B; for inhibition at 100 µM: Conc. 0.1 mM
# Enterovirus strain 71 = assay: CPE inhibition in mammalian cell culture, EV71; set-up: inhibition: dose or concentration left out as unconfirmed; details: read-out: antiviral effect, EV71
# [7] = tested on: coxsackie B virus strain 3; assay: CPE inhibition in mammalian cell culture, Cox-B3; set-up: inhibition: dose or concentration left out as unconfirmed
# [8] = read-out: antiviral effect, EV30
# [9] = read-out: antiviral effect, LV012
# [10] = read-out: antiviral effect, HPeV-1
# [11] = Conc. 2.5 µM, read-out: antiviral effect, LV012
# [12] = HPeV-1, Conc. 10.0 μM, read-out: % inh.
# [13] = read-out: antiviral effect, LV145
# [14] = read-out: antiviral effect, EMCV
smiles,measurement,setting,value
"Cc1cc(NC(C)c2ccccc2)n2nc(C)c(-c3ccc(F)cc3)c2n1 (stereo not shown) [Ex. 3, 3-(4-fluorophenyl)-2,5-dimethyl-N-(1-phenylethyl)pyrazolo[1,5-a]pyrimidin-7-amine]",inhibition at 2.5 µM,"[1]; EMCV, Conc. 2.5 μM",92%
"COc1ccc(-c2c(C)nn3c(NCCc4ccc(Cl)cc4)cc(C)nc23)cc1OC [Ex. 5, N-[2-(4-chlorophenyl)ethyl]-3-(3,4-dimethoxyphenyl)-2,5-dimethyl-pyrazolo[1,5-a]pyrimidin-7-amine]",inhibition at 0.25 µM,[2]; read-out: % inh.,71%
same,inhibition at 5000 µM,"[2]; read-out: antiviral effect, B4",97%
same,inhibition at 5 µM,Enterovirus strain 30; [8],58%
same,inhibition at 5000 µM,[3],76%
same,inhibition,Enterovirus strain 6,80%
same,inhibition at 5000 µM,"[4]; read-out: antiviral effect, B5",94%
same,inhibition at 5000 µM,polio virus strain 1,68%
same,inhibition at 5 µM,Ljungan virus strain 012; [9],18%
same,inhibition at 5 µM,[5]; [10],22%
same,inhibition at 5000 µM,"[6]; read-out: antiviral effect, B1",79%
"COc1ccc(-c2c(C)nn3c(NCCCc4ccccc4)cc(C)nc23)cc1OC [Ex. 7, 3-(3,4-dimethoxyphenyl)-2,5-dimethyl-N-(3-phenylpropyl)pyrazolo[1,5-a]pyrimidin-7-amine]",inhibition at 2.5 µM,"Ljungan virus strain 145; LV145, Conc. 2.5 μM",54%
same,inhibition at 2500 µM,"[2]; read-out: antiviral effect, B4",82%
same,inhibition at 2.5 µM,Enterovirus strain 30; [8],89%
same,inhibition at 2500 µM,[3],92%
same,inhibition at 2500 µM,"[4]; read-out: antiviral effect, B5",68%
same,inhibition at 2500 µM,polio virus strain 1,80%
same,inhibition at 2.5 µM,Ljungan virus strain 012; [11],14%
same,inhibition at 2.5 µM,[5]; [10],6%
same,inhibition at 2500 µM,"[6]; read-out: antiviral effect, B1",77%
"COc1ccc(-c2c(C)nn3c(NCc4ccc5c(c4)OCO5)cc(C)nc23)cc1OC [Ex. 8, N-(1,3-benzodioxol-5-ylmethyl)-3-(3,4-dimethoxyphenyl)-2,5-dimethyl-pyrazolo[1,5-a]pyrimidin-7-amine]",inhibition at 5000 µM,"[2]; read-out: antiviral effect, B4",89%
same,inhibition at 5 µM,Enterovirus strain 30; [8],53%
same,inhibition at 5000 µM,[3],100%
same,inhibition,Enterovirus strain 6,88%
same,inhibition at 0.25 µM,[4]; read-out: % inh.,100%
same,inhibition at 5000 µM,"[4]; read-out: antiviral effect, B5",100%
same,inhibition at 5000 µM,polio virus strain 1,91%
same,inhibition at 5 µM,Ljungan virus strain 012; [9],38%
same,inhibition at 5 µM,[5]; [10],14%
same,inhibition at 5000 µM,"[6]; read-out: antiviral effect, B1",82%
"COc1ccc(CCNc2cc(C)nc3c(-c4ccc(OC)c(OC)c4)c(C)nn23)c(OC)c1 [Ex. 12, 3-(3,4-dimethoxyphenyl)-N-[2-(2,4-dimethoxyphenyl)ethyl]-2,5-dimethyl-pyrazolo[1,5-a]pyrimidin-7-amine]",inhibition at 2500 µM,"[2]; read-out: antiviral effect, B4",77%
same,inhibition at 2.5 µM,Enterovirus strain 30; [8],84%
same,inhibition at 2500 µM,"[4]; read-out: antiviral effect, B5",82%
same,inhibition at 2500 µM,polio virus strain 1,73%
same,inhibition at 2.5 µM,Ljungan virus strain 012; [11],60%
same,inhibition at 2.5 µM,"Ljungan virus strain 012; LV012, Conc. 2.5 μM, read-out: % inh.",60%
same,inhibition at 2.5 µM,[5]; [10],8%
same,inhibition at 2500 µM,"[6]; read-out: antiviral effect, B1",93%
"Cc1cc(NCc2ccccc2)n2ncc(-c3ccc(Cl)cc3)c2n1 [Ex. 25, N-benzyl-3-(4-chlorophenyl)-5-methyl-pyrazolo[1,5-a]pyrimidin-7-amine]",inhibition at 10 µM,[5]; [12],24%
"Cc1ccc(-c2c(C)nn3c(NCc4ccccn4)cc(C)nc23)cc1 [Ex. 33, 2,5-dimethyl-3-(p-tolyl)-N-(2-pyridylmethyl)pyrazolo[1,5-a]pyrimidin-7-amine]",inhibition,"Ljungan virus strain 145; Conc., read-out: antiviral effect, LV145",69%
same,inhibition,"[1]; Conc., read-out: antiviral effect, EMCV",60%
same,inhibition,Enterovirus strain 71; Conc.,0%
same,inhibition at 10 µM,"Enterovirus strain 30; Conc. 10 µM, read-out: antiviral effect, EV30",85%
same,inhibition at 1 µM,"Enterovirus strain 30; EV30, Conc. 1.0 μM, read-out: % inh.",48%
same,inhibition at 10000 µM,[3],81%
same,inhibition at 10000 µM,"[4]; read-out: antiviral effect, B5",92%
same,inhibition at 10000 µM,polio virus strain 1,58%
same,inhibition at 10 µM,"[5]; Conc. 10 µM, read-out: antiviral effect, HPeV-1",13%
"COc1ccc(-c2c(C)nn3c(NC4CCCC4)cc(C)nc23)cc1OC [Ex. 41, N-cyclopentyl-3-(3,4-dimethoxyphenyl)-2,5-dimethyl-pyrazolo[1,5-a]pyrimidin-7-amine]",inhibition at 10 µM,[1]; EMCV,93%
"COc1ccc(-c2c(C)nn3c(NC4CCCCC4)cc(C)nc23)cc1OC [Ex. 43, N-cyclohexyl-3-(3,4-dimethoxyphenyl)-2,5-dimethyl-pyrazolo[1,5-a]pyrimidin-7-amine]",inhibition at 10 µM,[5]; [12],46%
"COc1ccc(-c2c(C)nn3c(Nc4ccc(Cl)cc4)cc(C)nc23)cc1OC [Ex. 47, N-(4-chlorophenyl)-3-(3,4-dimethoxyphenyl)-2,5-dimethyl-pyrazolo[1,5-a]pyrimidin-7-amine]",inhibition at 10 µM,[5]; [12],56%
"COc1ccc(-c2c(C)nn3c(Nc4ccccc4)cc(C)nc23)cc1OC [Ex. 57, 3-(3,4-dimethoxyphenyl)-2,5-dimethyl-N-phenyl-pyrazolo[1,5-a]pyrimidin-7-amine]",inhibition at 10 µM,[5]; [12],22%
"COc1ccc(-c2c(C)nn3c(NCc4ccc(C(F)(F)F)cc4)cc(C)nc23)cc1OC [Ex. 72, 3-(3,4-dimethoxyphenyl)-2,5-dimethyl-N-[[4-(trifluoromethyl)phenyl]methyl]pyrazolo[1,5-a]pyrimidin-7-amine]",inhibition at 0.1 µM,[2]; read-out: % inh.,85%
same,inhibition at 1000 µM,"[2]; read-out: antiviral effect, B4",91%
same,inhibition at 1000 µM,"[7]; read-out: antiviral effect, B3",99%
same,inhibition at 1 µM,"Enterovirus strain 30; Conc. 1 µM, read-out: antiviral effect, EV30",100%
same,inhibition at 1000 µM,[3],94%
same,inhibition at 1000 µM,"[4]; read-out: antiviral effect, B5",99%
same,inhibition at 1000 µM,polio virus strain 1,100%
same,inhibition at 1 µM,"Ljungan virus strain 012; Conc. 1 µM, read-out: antiviral effect, LV012",0%
same,inhibition at 1 µM,"[5]; Conc. 1 µM, read-out: antiviral effect, HPeV-1",4%
same,inhibition at 1000 µM,"[6]; read-out: antiviral effect, B1",100%
"COc1ccc(-c2c(C)nn3c(Nc4ccc(C(F)(F)F)cc4)cc(C)nc23)cc1OC [Ex. 73, 3-(3,4-dimethoxyphenyl)-2,5-dimethyl-N-[4-(trifluoromethyl)phenyl]pyrazolo[1,5-a]pyrimidin-7-amine]",inhibition at 0.1 µM,[2]; read-out: % inh.,44%
"COc1ccc(-c2c(C)nn3c(NCc4ccc(OC(F)(F)F)cc4)cc(C)nc23)cc1OC [Ex. 76, 3-(3,4-dimethoxyphenyl)-2,5-dimethyl-N-[[4-(trifluoromethoxy)phenyl]methyl]pyrazolo[1,5-a]pyrimidin-7-amine]",inhibition at 1 µM,[7]; read-out: % inh.,100%
"COc1ccc(-c2c(C)nn3c(NCc4ccc(NC(C)=O)cc4)cc(C)nc23)cc1OC [Ex. 77, N-[4-[[[3-(3,4-dimethoxyphenyl)-2,5-dimethyl-pyrazolo[1,5-a]pyrimidin-7-yl]amino]methyl]phenyl]acetamide]",inhibition at 0.1 µM,[7]; read-out: % inh.,60%
"COc1ccc(-c2c(C)nn3c(NCc4ccc(S(C)(=O)=O)cc4)cc(C)nc23)cc1OC [Ex. 84, 3-(3,4-dimethoxyphenyl)-2,5-dimethyl-N-[(4-methylsulfonylphenyl)methyl]pyrazolo[1,5-a]pyrimidin-7-amine]",inhibition at 0.1 µM,[7]; read-out: % inh.,84%
"COc1ccc(-c2c(C)nn3c(NCc4ccc(C)nc4)cc(C)nc23)cc1OC [Ex. 92, 3-(3,4-dimethoxyphenyl)-2,5-dimethyl-N-[(6-methyl-3-pyridyl)methyl]pyrazolo[1,5-a]pyrimidin-7-amine]",inhibition at 100 µM,Ljungan virus strain 145; [13],0%
same,inhibition at 100 µM,[1]; [14],0%
same,inhibition at 0.01 µM,[7]; read-out: % inh.,100%
same,inhibition,"[7]; read-out: antiviral effect, B3",100%
same,inhibition,Enterovirus strain 30; [8],100%
same,inhibition,[3],96%
same,inhibition,"[4]; read-out: antiviral effect, B5",95%
same,inhibition,polio virus strain 1,98%
same,inhibition at 100 µM,Ljungan virus strain 012; [9],0%
same,inhibition,"[6]; read-out: antiviral effect, B1",100%
"COc1ccc(-c2c(C)nn3c(NCc4ccc(C(C)=O)cc4)cc(C)nc23)cc1OC [Ex. 94, 1-[4-[[[3-(3,4-dimethoxyphenyl)-2,5-dimethyl-pyrazolo[1,5-a]pyrimidin-7-yl]amino]methyl]phenyl]ethanone]",inhibition at 100 µM,Ljungan virus strain 145; [13],0%
same,inhibition at 100 µM,[1]; [14],0%
same,inhibition at 100 µM,Enterovirus strain 71; Conc. 0.1 mM,100%
same,inhibition,"[7]; read-out: antiviral effect, B3",100%
same,inhibition at 100 µM,"Enterovirus strain 30; Conc. 0.1 mM, read-out: antiviral effect, EV30",96%
same,inhibition,[3],100%
same,inhibition,"[4]; read-out: antiviral effect, B5",56%
same,inhibition,polio virus strain 1,100%
same,inhibition at 100 µM,Ljungan virus strain 012; [9],12%
same,inhibition at 0.01 µM,[6]; read-out: % inh.,100%
same,inhibition,"[6]; read-out: antiviral effect, B1",100%
"COc1ccc(-c2c(C)nn3c(Nc4ccon4)cc(C)nc23)cc1OC [Ex. 95, N-[3-(3,4-dimethoxyphenyl)-2,5-dimethyl-pyrazolo[1,5-a]pyrimidin-7-yl]isoxazol-3-amine]",inhibition at 10 µM,[5]; [12],55%
"COc1ccc(-c2cnn3c(NCc4ccc(F)cc4)cc(C)nc23)cc1OC [Ex. 99, 3-(3,4-dimethoxyphenyl)-N-[(4-fluorophenyl)methyl]-5-methyl-pyrazolo[1,5-a]pyrimidin-7-amine]",inhibition at 0.1 µM,[7]; read-out: % inh.,100%
"Cc1cc(NCc2ccc(F)cc2)n2nc(C)c(-c3ccc4c(c3)OCO4)c2n1 [Ex. 102, 3-(1,3-benzodioxol-5-yl)-N-[(4-fluorophenyl)methyl]-2,5-dimethyl-pyrazolo[1,5-a]pyrimidin-7-amine]",inhibition at 1 µM,[7]; read-out: % inh.,100%
"Cc1cc(NCc2ccc(F)cc2)n2nc(C)c(-c3ccc(Cl)c(Cl)c3)c2n1 [Ex. 103, 3-(3,4-dichlorophenyl)-N-[(4-fluorophenyl)methyl]-2,5-dimethyl-pyrazolo[1,5-a]pyrimidin-7-amine]",inhibition at 10 µM,[1]; EMCV,74%
